Experimental data taken from paper PMC5519620 (Frontiers in Cellular Neuroscience, 2017).
“Also recorded” adds a separate entry of the source.

What was measured:
mouse α9α10 nAChR = mouse α9α10 nAChR (Mus musculus, UniProt B2RX82+G3X8Z7); test: Agonist activation of mouse α9α10 nAChRs in Xenopus oocytes (two-electrode voltage clamp); assay type: biochemical; settings: for Hill slope for activation / EC50: 95% confidence interval in parentheses, ACh n = 5, choline n = 4; for agonist behaviour (words): oocyte two-electrode voltage clamp, nicotine 100 nM to 10 mM; for EC50: oocytes, holding potential −70 mV
mouse α9α10 nAChR, sequence (G3X8Z7 23-479): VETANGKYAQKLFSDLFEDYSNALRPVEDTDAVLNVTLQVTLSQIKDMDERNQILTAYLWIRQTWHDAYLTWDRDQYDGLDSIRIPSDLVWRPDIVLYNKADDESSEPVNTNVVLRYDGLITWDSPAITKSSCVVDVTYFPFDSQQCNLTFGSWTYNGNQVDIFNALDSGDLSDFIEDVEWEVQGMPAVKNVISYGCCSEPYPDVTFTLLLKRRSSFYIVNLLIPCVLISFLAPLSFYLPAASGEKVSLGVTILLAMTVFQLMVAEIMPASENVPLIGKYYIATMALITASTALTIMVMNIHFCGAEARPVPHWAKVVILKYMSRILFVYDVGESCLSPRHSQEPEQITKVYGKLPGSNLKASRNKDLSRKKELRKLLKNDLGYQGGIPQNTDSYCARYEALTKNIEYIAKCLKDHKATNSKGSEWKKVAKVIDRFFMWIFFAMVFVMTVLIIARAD
mouse α9α10 nAChR, sequence (B2RX82 25-447): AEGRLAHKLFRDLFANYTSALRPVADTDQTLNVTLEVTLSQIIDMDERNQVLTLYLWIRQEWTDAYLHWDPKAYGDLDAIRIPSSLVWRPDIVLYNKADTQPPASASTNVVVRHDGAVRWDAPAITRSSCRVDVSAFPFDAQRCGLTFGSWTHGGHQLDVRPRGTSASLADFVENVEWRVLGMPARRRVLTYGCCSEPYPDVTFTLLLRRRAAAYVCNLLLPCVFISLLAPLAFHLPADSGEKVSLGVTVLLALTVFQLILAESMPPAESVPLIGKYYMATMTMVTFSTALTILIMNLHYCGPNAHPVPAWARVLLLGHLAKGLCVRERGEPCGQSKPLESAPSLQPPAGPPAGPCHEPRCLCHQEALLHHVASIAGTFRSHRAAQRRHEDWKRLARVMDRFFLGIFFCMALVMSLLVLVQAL
Experimental: X. laevis oocytes were injected with 25 ng of each cRNA encoding α9 and α10 subunits as previously described (Cartier et al., [1996]) and incubated for 48 h at 17°C in ND96 prior to use. Two-electrode voltage clamp electrophysiology was conducted to assess for functional expression of α9α10 nAChRs as previously described (Azam et al., [2008]). The oocyte membranes were clamped at a holding potential of −70 mV and stimulated with 1 s pulses of 1 mM ACh once every 60 s. After a steady-state response baseline was observed, the oocytes were then stimulated with ascending concentrations of ACh, choline, or nicotine. Each oocyte was stimulated first with ACh followed by choline then nicotine. The maximal response value for activation by ACh was determined using the Hill equation: Y = Bottom + (Top-Bottom)/(1+10^∧((LogEC50−X)*Hill slope)). The responses to all concentrations of ACh, choline, and nicotine were then normalized to this value and calculated as a % response.

α9* nAChRs of monocytes = settings: ref Hecker et al., 2015; Richter et al., 2016; Backhaus et al., 2017; cited from earlier work
CBA/CaJ mice = settings: mouse, in vivo
α9α10 nAChR = settings: MLA and α-bungarotoxin; no reference given; cited from earlier work

With `C[N+](C)(C)CCO` [choline] the “Hill slope for activation” value (mouse α9α10 nAChR) was 1.3 (0.5–2.1), the “agonist behaviour (words)” value (mouse α9α10 nAChR) was “activated” and the “agonist behaviour (words)” value (mouse α9α10 nAChR; listed as Choline) was “behaved as a partial agonist relative to ACh; also recorded: potently activated α9α10 nAChRs”. It also gave an EC50 (mouse α9α10 nAChR) of 601 µM.
In the case of `CN1CCC[C@H]1c1cccnc1` [nicotine], the “evoked current (% response relative to ACh maximum)” value (mouse α9α10 nAChR; n = 4, nicotine) is reported as 0.4 ± 0.2%, the “agonist behaviour (words)” value (mouse α9α10 nAChR) is reported as “not by nicotine; also recorded: did not activate Xenopus oocyte-expressed mouse α9α10 nAChRs” and the “agonist behaviour (words)” value (mouse α9α10 nAChR; listed as Nic) is reported as “failed to evoke currents at concentration from 100 nM to 10 mM”. For the same compound, the “agonist behaviour (words)” value (mouse α9α10 nAChR; listed as Nicotine) was “failed to evoke currents in all oocytes tested” and the “Agonist action on monocyte α9* nAChRs” value (α9* nAChRs of monocytes) was “act as an agonist of α9^* nAChRs in immune cell monocytes”.
With `O=C1[O][Pt]2([NH][C@@H]3CCCC[C@H]3[NH]2)[O]C1=O` [oxaliplatin] the “Oxaliplatin-induced cold allodynia” value (CBA/CaJ mice) was “produced cold allodynia, an effect that significantly differed from control beginning by week three and continuing for 2 weeks post-oxaliplatin treatment”.
For `CC(=O)OCC[N+](C)(C)C` [ACh, acetylcholine], the ACh-evoked current amplitude (mouse α9α10 nAChR; 1 mM ACh) was greater than 10 μA, the “Hill slope for activation” value (mouse α9α10 nAChR) was 1.1 (0.8–1.4) and the “agonist behaviour (words)” value (mouse α9α10 nAChR) was “activated; also recorded: induced robust currents”. It also gave an EC50 (mouse α9α10 nAChR) of 30.1 µM.
For `CCN1C[C@]2(COC(=O)c3ccccc3N3C(=O)C[C@H](C)C3=O)CC[C@H](OC)[C@@]34[C@@H]5C[C@H]6[C@H](OC)[C@@H]5[C@](O)(C[C@@H]6OC)[C@@](O)([C@@H](OC)[C@H]23)[C@@H]14` [methyllycaconitine (MLA), methyllycaconitine], the “α9α10 nAChR block” value (α9α10 nAChR) is listed as “potently block α9α10 nAChRs”.
